Earlier results, collected in patent publication US5585379A, “Acyclovir antiviral gel composition” (AGIS Industries (1983) Ltd., priority 1992, dated 1996).
Read-outs that look alike come from different tables or passages of the source.

Assays:
herpes simplex virus = settings: in vitro and in vivo
[1] = oral
[2] = tested on: herpes simplex virus infections

For `Nc1nc2c(ncn2COCCO)c(=O)[nH]1` [Acyclovir, 9-(2-hydroxyethoxymethyl)guanine], the “solubility in hydrophobic solvent systems” value (hydrophobic solvent systems) is given as “almost totally insoluble in hydrophobic solvent systems”, the “solubility in water (words)” value is given as “low solubility in water” and the “solubility in water (words)” value (listed as acyclovir) is given as “poor water-solubility”. The “antiviral activity against herpes simplex virus (words)” value (herpes simplex virus) was “active against herpes simplex virus”, the “antiviral activity against herpes simplex virus (words)” value (herpes simplex virus; listed as acyclovir) was “potent antiviral activity against herpes simplex virus” and the “therapeutic effect on vulvar vestibulitis” value [1] was “therapeutic effect on vulvar vestibulitis”. For the same compound, the “efficacy of topical therapy compared to oral or parenteral” value [2] was “lacks efficacy as compared to oral or parenteral administrations”.
